Measurements reported in PubChem BioAssay AID1918956 (Molecular Pharmacology Branch, DTP, NCI, 2023).

Test system: OVCAR-5 complex spheroids, viability
Assay: Anticancer human tumor OVCAR-5 cell line growth inhibition;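 also: spheroids exposed to agents for seven days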;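 as to viability, T/C: 100% = DMSO vehicle control wells viability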
Conditions: for IC50: curve of first compound; for viability, T/C: stronger effect = lower value
In short: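 Drug combinations with the LSD1 inhibitor iadademstat tested on tumor cells co-cultured as spheroids with endothelial cells and mesenchymal stem cells. Concentrations descended in half-log increments from clinical Cmax or 10 microM.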

[1] = second compound 0.1 µM, first compound 0.0316 µM
[2] = second compound 0.1 µM, first compound 0.1 µM
[3] = second compound 0.1 µM, first compound 0.316 µM
[4] = second compound 0.1 µM, first compound 1 µM
[5] = second compound 0.1 µM, first compound 3.16 µM
[6] = second compound 0.1 µM, first compound 10 µM
[7] = second compound 0.316 µM, first compound 0.0316 µM
[8] = second compound 0.316 µM, first compound 0.1 µM
[9] = second compound 0.316 µM, first compound 0.316 µM
[10] = second compound 0.316 µM, first compound 1 µM
[11] = second compound 0.316 µM, first compound 3.16 µM
[12] = second compound 0.316 µM, first compound 10 µM
[13] = second compound 1 µM, first compound 0.0316 µM
[14] = second compound 1 µM, first compound 0.1 µM
[15] = second compound 1 µM, first compound 0.316 µM
[16] = second compound 1 µM, first compound 1 µM
[17] = second compound 1 µM, first compound 3.16 µM
[18] = second compound 1 µM, first compound 10 µM
[19] = second compound 3.16 µM, first compound 0.0316 µM
[20] = second compound 3.16 µM, first compound 0.1 µM
[21] = second compound 3.16 µM, first compound 0.316 µM
[22] = second compound 3.16 µM, first compound 1 µM
[23] = second compound 3.16 µM, first compound 3.16 µM
[24] = second compound 3.16 µM, first compound 10 µM
[25] = second compound 10 µM, first compound 0.0316 µM
[26] = second compound 10 µM, first compound 0.1 µM
[27] = second compound 10 µM, first compound 0.316 µM
[28] = second compound 10 µM, first compound 1 µM
[29] = second compound 10 µM, first compound 3.16 µM
[30] = second compound 10 µM, first compound 10 µM

| Structure (SMILES) | IC50 (second compound 0.1 µM) [µM] | IC50 (second compound 0.316 µM) [µM] | IC50 (second compound 1 µM) [µM] | IC50 (second compound 3.16 µM) [µM] | IC50 (second compound 10 µM) [µM] | viability, T/C [1] [%] | viability, T/C [2] [%] | viability, T/C [3] [%] | viability, T/C [4] [%] | viability, T/C [5] [%] | viability, T/C [6] [%] | viability, T/C [7] [%] | viability, T/C [8] [%] | viability, T/C [9] [%] | viability, T/C [10] [%] | viability, T/C [11] [%] | viability, T/C [12] [%] | viability, T/C [13] [%] | viability, T/C [14] [%] | viability, T/C [15] [%] | further results |
| --- | --- | --- | --- | --- | --- | --- | --- | --- | --- | --- | --- | --- | --- | --- | --- | --- | --- | --- | --- | --- | --- |
| CC1(C)CCC(CN2CCN(c3ccc(C(=O)NS(=O)(=O)c4ccc(NCC5CCOCC5)c([N+](=O)[O-])c4)c(Oc4cnc5[nH]ccc5c4)c3)CC2)=C(c2ccc(Cl)cc2)C1 + NC1CC1c1ccc(-c2cccc(O)c2)cc1 | 7.44 | 7.76 | 7.37 | 7.61 | 7.57 | 99.4 | 97.3 | 110 | 97.2 | 103 | 32.1 | 107 | 112 | 106 | 101 | 100 | 35.6 | 110 | 92.4 | 93.3 | viability, T/C [16]: 105%; viability, T/C [17]: 94.4%; viability, T/C [18]: 33.7%; viability, T/C [19]: 103%; viability, T/C [20]: 86.9%; viability, T/C [21]: 88.5%; viability, T/C [22]: 106%; viability, T/C [23]: 96%; viability, T/C [24]: 35.7%; viability, T/C [25]: 89.3%; viability, T/C [26]: 85%; viability, T/C [27]: 85.9%; viability, T/C [28]: 86%; viability, T/C [29]: 85%; viability, T/C [30]: 38.9% |
| CC1COCCN1c1cc(C2(S(C)(=N)=O)CC2)nc(-c2ccnc3[nH]ccc23)n1 (stereo not given) + NC1CC1c1ccc(-c2cccc(O)c2)cc1 | 0.858 | 0.862 | 0.792 | 0.663 | 0.697 | 80.6 | 78.3 | 72.8 | 45.9 | 32 | 26.7 | 89.2 | 95.6 | 80.6 | 44.9 | 33 | 25.6 | 71.4 | 75.4 | 74.2 | viability, T/C [16]: 44%; viability, T/C [17]: 29.9%; viability, T/C [18]: 25%; viability, T/C [19]: 88.8%; viability, T/C [20]: 77.6%; viability, T/C [21]: 62.1%; viability, T/C [22]: 42.9%; viability, T/C [23]: 32%; viability, T/C [24]: 24.8%; viability, T/C [25]: 76.9%; viability, T/C [26]: 78.6%; viability, T/C [27]: 65.7%; viability, T/C [28]: 42.3%; viability, T/C [29]: 32.3%; viability, T/C [30]: 27% |
